“And” between values parts separate entries of the source, which are not always exact repeats. Equal entries are not always repeated. Where two headings read alike, the source gives them in different places. Where a SMILES comes first, the peptide text is derived from it. [ ]: non-standard residue; d: D form. The star is where a group is joined. NHCH2CH2OH = OCCN*; For = O=C*
Assays:
[1] = test system: Streptococcus pyogenes SSI-9; settings: for antibacterial activity/MIC: S. pyogenes; for Antibacterial activity MIC: SSI-9
Method: (§1) Third, 1 was subjected to five pathogenic Gram-positive bacteria.
(§2) Evaluation of antibacterial spectra of purified peptides. The MIC assay was performed according to the Clinical and Laboratory Standards Institute protocols. The antibacterial activities of the purified peptides A1, B01–B04, B11–B13, B21, and B22 were measured using the broth microdilution method. 6 Serial dilutions of the peptides were prepared in cation adjusted Mueller Hinton Broth. Each dilution (100 µL) was dispensed to each well of the round-bottom plate to obtain final concentrations ranging from 64 µg/mL to 0.00024 µg/mL. Bacteria were grown at 37 °C overnight on Tryptic Soy Broth or Mueller Hinton Broth agar plates.
(§3) The bacterial colonies were suspended in 0.9% saline to obtain OD 625 of 0.08–0.13 using a spectrophotometer UV-1280 (Shimadzu). The resultant suspension was diluted with cation adjusted Mueller Hinton Broth (1/20). The resultant mixture (10 .0 µL) was inoculated to each well of the plates (approximately 5 × 10^4 CFU/well), mixed, and incubated at 37 °C for 18–24 h. The MIC value was determined as the minimum concentration that inhibited growth of bacteria. For Streptococcus species, cation adjusted Mueller Hinton Broth supplemented with 5% laked horse blood was used. […]

[2] = test system: Streptococcus agalactiae JCM5671; settings: for Antibacterial activity MIC: JCM5671; for antibacterial activity/MIC: S. agalactiae
Method: as §1, §2, §3

[3] = test system: Listeria monocytogenes 10403S; settings: for antibacterial activity/MIC: L. monocytogenes
Method: as §1, §2, §3

[4] = test system: Streptococcus pneumoniae NBRC 102642; settings: for Antibacterial activity MIC: NBRC 102642; for antibacterial activity/MIC: S. pneumoniae
Method: as §1, §2, §3

[5] = test system: Enterococcus faecalis JCM5803; settings: for antibacterial activity/MIC: E. faecalis; for Antibacterial activity MIC: JCM5803
Method: as §1, §2, §3

[6] = Membrane disruption assay of purified peptides (carboxyfluorescein leakage); assay type: biochemical; design: key: % lysis; Triton X-100 = 100%, DMSO = 0%; settings: three replicate lines
Method: Membrane disruption assay of purified peptides. 5(6)-Carboxyfluorescein (CF)-encapsulated large […]
through Nuclepore polycarbonate filters mounted in the mini-extruder apparatus. A solution of egg yolk phosphatidylcholine (EYPC, 22.0 mg, 28.9 µmol) in CHCl3 (225 µL) and egg yolk phosphatidylglycerol (1.2 0 […]
mM HEPES, 100 mM NaCl, 20 mM CF) by sonication. After five -times freeze-thaw cycles, the lipid […]
concentration of the resultant CF -encapsulated LUV suspension was deduced from the phosphatidylcholine concentration determined by using Phospholipid C -Test Wako. The lipid concentration of the LUV […]
as 5-fold serial dilution. The solution of peptide (2.0 µL) and the CF-encapsulated LUV suspension (200 […]
The resultant suspension was incubated at room temperature for 30 min. The fluorescence (Ex. 490 nm/Em. 517 nm) of each well was measured on Gemini EM microplate reader. Triton X-100/H2O (5/95, 3.0 µL), DMSO (2.0 µL), and the LUV suspension were mixed in each plate to determine 100% lysis. […]
was used to determine 0% lysis. The membrane disruption activities of tested peptides ( I) were normalized against 100% lysis by Triton X-100 (Imax) and 0% lysis by DMSO ( I0) according to Supplementary Equation 2 , where Ix is the fluorescence intensity.
The membrane disruption activities of the purified peptides were plotted as means of three replicates (Supplementary Figure 1).

[7] = H+/Na+ transport assay of purified peptides; settings: for Supplementary Figure 5 dose-response value (H+/Na+ transport): three replicate lines
rabbit red blood cells = settings: red cells of rabbit, 2 h
Method: Second, we examined the cytotoxicity toward mammalian cancer cells and hemolytic activity of 1. […] Hemolytic activity was evaluated by monitoring hemoglobin leakage from rabbit red blood cells as a consequence of membrane damage. The concentration of 1 required to cause 10% hemoglobin leakage (HC10) was 160 nM. Thus, the P388 cytotoxicity of 1 was 28-fold more sensitive than its hemolytic activity.
Hemolysis assay of purified peptides. […]
with DMSO to various concentrations as 3-fold serial dilution. A 50% suspension of rabbit blood in Alsever's solution was obtained from Nippon Bio -Supp. Center . The blood suspension (250 µL) w as diluted with phosphate buffered saline (no calcium, no magnesium, 1.00 mL). The resultant suspension was centrifuged at 1000 × g for 3 min at 8 °C. The supernatant was discarded, and the collected cells were resuspended in phosphate buffered saline (no calcium, no magnesium, 1.00 mL). The same procedure was repeated (× 3). The resultant suspension (100 µL) was diluted with phosphate buffered saline (no calcium, no magnesium, 4.90 mL) to give 0.2% red blood cells suspension. The 0.2% red blood cells suspension (95.0 µL) and each dilution series of the purified peptide in DMSO (5 .0 µL) were mixed in 2 mL microtube.
supernatant was transferred to a 96-well plate (TR5003, TrueLine). The absorbance of each well at 415 nm was measured using a Thermo Scientific Multiskan GO (Thermo Fisher Scientific). The mixture of Triton X-100/H2O (5/95, 2.0 µL), DMSO (5.0 µL), and the 0.2% red blood cells suspension (95.0 µL) was used to determine 100% hemolysis. The mixture of DMSO (5.0 µL) and the 0.2% red blood cells suspension (95.0 µL) was used to determine 0% hemolysis. The hemolytic activities of tested peptides ( I) were normalized against 100% hemolysis by Triton X -100 (Imax) and 0% hemolysis by DMSO (I0) according to Supplementary Equation 3, where Ix is the UV absorbance.
I = 100 × (Ix – I0) / (Imax – I0) (3)
The hemolytic activities of the purified peptides were evaluated as the concentrations causing 10% hemolysis (HC10, nM) by means of three replicates. Sigmoidal curve fittings were performed on GraphPad Prism (GraphPad software, Supplementary Figure 7).

[8] = read-out: EC50, H+/Na+ transport assay, 1st experiment
[9] = read-out: EC50, H+/Na+ transport assay, 2nd experiment
[10] = read-out: EC50, H+/Na+ transport assay, 3rd experiment
[11] = read-out: H+/Na+ transport activity EC50, EYPC/EYPG (19:1) LUVs
[12] = read-out: H+/Na+ transport activity/EC50, mean ± SD of three independent experiments

| antibacterial activity/MIC [1] | Antibacterial activity MIC [1] | Antibacterial activity MIC [2] | antibacterial activity/MIC [2] | antibacterial activity/MIC [3] | Antibacterial activity MIC [4] | antibacterial activity/MIC [4] | antibacterial activity/MIC [5] | Antibacterial activity MIC [5] | Structure (SMILES) | Supplementary Figure 1 dose-response value ([6]; concentration 0.000512 nM) | Supplementary Figure 1 dose-response value ([6]; concentration 0.00256 nM) | Supplementary Figure 1 dose-response value ([6]; concentration 0.0128 nM) | Supplementary Figure 1 dose-response value ([6]; concentration 0.064 nM) | Supplementary Figure 1 dose-response value ([6]; concentration 0.32 nM) | Supplementary Figure 1 dose-response value ([6]; concentration 1.6 nM) | Supplementary Figure 1 dose-response value ([6]; concentration 8 nM) | Supplementary Figure 1 dose-response value ([6]; concentration 40 nM) | Supplementary Figure 1 dose-response value ([6]; concentration 200 nM) | Supplementary Figure 1 dose-response value ([6]; concentration 1000 nM) | Supplementary Figure 1 dose-response value ([6]; concentration 5000 nM) | further results |
| --- | --- | --- | --- | --- | --- | --- | --- | --- | --- | --- | --- | --- | --- | --- | --- | --- | --- | --- | --- | --- | --- |
| 0.063 µg/mL | 0.034 µM | 4.3 µM | 8 µg/mL | 8 µg/mL | 0.0084 µM | 0.016 µg/mL | 1 µg/mL | 0.54 µM | CC(C)C[C@@H](NC(=O)[C@H](C)NC(=O)CNC(=O)[C@@H](NC=O)C(C)C)C(=O)N[C@@H](C)C(=O)N[C@@H](C(=O)N[C@H](C(=O)N[C@@H](C(=O)N[C@@H](Cc1c[nH]c2ccccc12)C(=O)N[C@@H](C(=O)N[C@@H](Cc1c[nH]c2ccccc12)C(=O)N[C@H](CC(C)C)C(=O)N[C@@H](Cc1c[nH]c2ccccc12)C(=O)N[C@@H](C(=O)N[C@@H](Cc1c[nH]c2ccccc12)C(=O)NCCO)C(C)C)C(C)C)C(C)C)C(C)C)C(C)C [B04] (For-VGA[dL]A[dV]V[dV]W[dV]W[dL]W[dV]W-NHCH2CH2OH) | 5.512 and 4.537 and 0.4455 | -0.04863 and -3.2 and 2.187 | 9.24 and 8.431 and 0.7987 | 3.3 and 2.841 and 2.346 | 3.831 and -2.375 and 0.08227 | 3.92 and -4.965 and 7.615 | 4.496 and 6.302 and 12.8514 | 10.2052 and 8.412 and 22.8437 | 31.7359 and 28.6719 and 15.6803 | 31.9617 and 33.3362 and 31.6759 | 49.4317 and 48.1889 and 46.8231 | Antibacterial activity MIC ([3]; 10403S): 4.3 µM; Supplementary Figure 5 dose-response value (H+/Na+ transport) ([7]; concentration 0.000512 nM): -0.2346 and 0.9427 and 1.027; Supplementary Figure 5 dose-response value (H+/Na+ transport) ([7]; concentration 0.00256 nM): 1.3317 and 0.8542 and 1.548; Supplementary Figure 5 dose-response value (H+/Na+ transport) ([7]; concentration 0.0128 nM): -1.2605 and 2.862 and -0.09432; Supplementary Figure 5 dose-response value (H+/Na+ transport) ([7]; concentration 0.064 nM): 5.945 and 3.111 and 2.028; Supplementary Figure 5 dose-response value (H+/Na+ transport) ([7]; concentration 0.32 nM): 10.5694 and 12.3828 and 8.56; Supplementary Figure 5 dose-response value (H+/Na+ transport) ([7]; concentration 1.6 nM): 26.4566 and 23.815 and 22.5252; Supplementary Figure 5 dose-response value (H+/Na+ transport) ([7]; concentration 8 nM): 54.4909 and 53.2036 and 54.0987; Supplementary Figure 5 dose-response value (H+/Na+ transport) ([7]; concentration 40 nM): 70.9935 and 73.4781 and 68.8062; Supplementary Figure 5 dose-response value (H+/Na+ transport) ([7]; concentration 200 nM): 73.8391 and 72.9169 and 76.5429; Supplementary Figure 5 dose-response value (H+/Na+ transport) ([7]; concentration 1000 nM): 75.0683 and 78.833 and 77.3632; Supplementary Figure 5 dose-response value (H+/Na+ transport) ([7]; concentration 5000 nM): 78.0479 and 76.1013 and 78.9016; EC50 [7, 8]: 3.43 nM; EC50 [7, 9]: 3.5 nM; EC50 [7, 10]: 4.18 nM; EC50 [7, 11]: 3.7 nM; EC50 [7, 12]: 3.71 ± 0.42 nM; Hemolytic activity HC10 (concentration causing 10% hemolysis) (rabbit red blood cells): 1100 nM |
| 0.5 µg/mL | 0.27 µM | 8.5 µM | 16 µg/mL | 4 µg/mL | 0.017 µM | 0.031 µg/mL | 2 µg/mL | 1.1 µM | CC(C)C[C@@H](NC(=O)[C@H](C)NC(=O)CNC(=O)[C@@H](NC=O)C(C)C)C(=O)N[C@@H](C)C(=O)N[C@H](CC(C)C)C(=O)N[C@H](C(=O)N[C@H](CC(C)C)C(=O)N[C@@H](Cc1c[nH]c2ccccc12)C(=O)N[C@H](CC(C)C)C(=O)N[C@@H](Cc1c[nH]c2ccccc12)C(=O)N[C@@H](C(=O)N[C@@H](Cc1c[nH]c2ccccc12)C(=O)N[C@@H](C(=O)N[C@@H](Cc1c[nH]c2ccccc12)C(=O)NCCO)C(C)C)[C@H](C)O)C(C)C [B11] (For-VGA[dL]A[dL]V[dL]W[dL]W[dT]W[dV]W-NHCH2CH2OH) | 5.494 and 6.863 and 12.708 | 14.2851 and 9.552 and 1.714 | 7.111 and 13.4023 and 5.9017 | 7.045 and 5.618 and 12.7128 | 7.504 and 4.742 and -0.9072 | 6.643 and 8.722 and 7.953 | 9.977 and 11.641 and 10.0816 | 10.5587 and 19.8477 and 14.3879 | 16.8668 and 21.6675 and 22.4815 | 29.3702 and 19.1829 and 26.8244 | 51.942 and 51.7671 and 63.4556 | Supplementary Figure 5 dose-response value (H+/Na+ transport) ([7]; concentration 0.000512 nM): 2.871 and 2.386 and 5.02; Supplementary Figure 5 dose-response value (H+/Na+ transport) ([7]; concentration 0.00256 nM): 3.181 and 2.224 and 1.333; Supplementary Figure 5 dose-response value (H+/Na+ transport) ([7]; concentration 0.0128 nM): 4.586 and 1.99 and 1.993; Supplementary Figure 5 dose-response value (H+/Na+ transport) ([7]; concentration 0.064 nM): 7.716 and 4.162 and 7.014; Supplementary Figure 5 dose-response value (H+/Na+ transport) ([7]; concentration 0.32 nM): 12.4442 and 13.4783 and 13.1353; Supplementary Figure 5 dose-response value (H+/Na+ transport) ([7]; concentration 1.6 nM): 25.1993 and 24.5125 and 22.5261; Supplementary Figure 5 dose-response value (H+/Na+ transport) ([7]; concentration 8 nM): 38.4333 and 37.5732 and 33.164; Supplementary Figure 5 dose-response value (H+/Na+ transport) ([7]; concentration 40 nM): 66.9626 and 64.2822 and 61.6393; Supplementary Figure 5 dose-response value (H+/Na+ transport) ([7]; concentration 200 nM): 70.7655 and 66.8425 and 69.2783; Supplementary Figure 5 dose-response value (H+/Na+ transport) ([7]; concentration 1000 nM): 70.5972 and 73.9169 and 73.5278; Supplementary Figure 5 dose-response value (H+/Na+ transport) ([7]; concentration 5000 nM): 72.3937 and 72.1348 and 73.2071; EC50 [7, 8]: 6.44 nM; EC50 [7, 9]: 2.58 nM; EC50 [7, 10]: 7.92 nM; EC50 [7, 11]: 5.7 nM; EC50 [7, 12]: 5.65 ± 2.76 nM; Hemolytic activity HC10 (concentration causing 10% hemolysis) (rabbit red blood cells): 910 nM |

— article PMC7531004, “Discovery of gramicidin A analogues with altered activities by multidimensional screening of a one-bead-one-compound library” (Nature Communications, 2020)
